In the first experiment the test system is HBV (encapsidated HBV DNA, HepG2.2.15 cells). Kind of experiment: HBV replication inhibition assay, BDNA assay in HepG2.2.15 cells. It counts as cell-based. The settings on record: Activity in BDNA-assay. How it is done:
HBV replication inhibition by the disclosed compounds were determined in cells infected or transfected with HBV, or cells with stably integrated HBV, such as HepG2.2.15 cells (Sells et al. 1987). In this example, HepG2.2.15 cells were maintained in cell culture medium containing 10% fetal bovine serum (FBS), Geneticin, L-glutamine, penicillin and streptomycin. HepG2.2.15 cells were seeded in 96-well plates at a density of 40,000 cells/well and were treated with serially diluted compounds at a final DMSO concentration of 0.5% either alone or in combination by adding drugs in a checker box format. Cells were incubated with compounds for three days, after which medium was removed and fresh medium containing compounds was added to cells and incubated for another three days. At day 6, supernatant was removed and treated with DNase at 37° C. for 60 minutes, followed by enzyme inactivation at 75° C. for 15 minutes. Encapsidated HBV DNA was released from the virions and covalently linked HBV polymerase by incubating in lysis buffer (Affymetrix QS0010) containing 2.5 μg proteinase K at 50° C. for 40 minutes. HBV DNA was denatured by addition of 0.2 M NaOH and detected using a branched DNA (BDNA) QuantiGene assay kit according to manufacturer recommendation (Affymetrix). HBV DNA levels were also quantified using qPCR, based on amplification of encapsidated HBV DNA extraction with QuickExtraction Solution (Epicentre Biotechnologies) and amplification of HBV DNA using HBV specific PCR probes that can hybridize to HBV DNA and a fluorescently labeled probe for quantitation. In addition, cell viability of HepG2.2.15 cells incubated with test compounds alone or in combination was determined by using CellTitre-Glo reagent according to the manufacturer protocol (Promega). The mean background signal from wells containing only culture medium was subtracted from all other samples, and percent inhibition at each compound concentration was calculated by normalizing to signals from HepG2.2.15 cells treated with 0.5% DMSO using equation E1. % inhibition=(DMSOave−Xi)/DMSOave×100% E1: where DMSOave is the mean signal calculated from the wells that were treated with DMSO control (0% inhibition control) and Xi is the signal measured from the individual wells. EC50 values, effective concentrations that achieved 50% inhibitory effect, were determined by non-linear fitting using Graphpad Prism software (San Diego, Calif.) and equation E2: Y=Y min+(Y max −Y min)/(1+10(Log EC50−X)×HillSlope) E2: […]
where Y represents percent inhibition values and X represents the logarithm of compound concentrations.
Selected disclosed compounds were assayed in the HBV replication assay (BDNA assay), as described above and a representative group of these active compounds is shown in Table 6.
For `C[C@@H]1Cc2nn3c(c2CN1C(=O)Nc1ccc(F)c(Br)c1)C(=O)N(C)CC(CO)C3` (single isomer, unassigned) [Compound 086_D2, (3R,8R*)—N-(3-bromo-4-fluorophenyl)-8-(hydroxymethyl)-3,10-dimethyl-11-oxo-1,3,4,7,8,9,10,11-octahydro-2H-pyrido[4′,3′:3,4]pyrazolo[1,5-a][1,4]diazepine-2-carboxamide], the EC50 lay in the range of 0.001 to 0.1 µM.
Take `C[C@@H]1Cc2nn3c(c2CN1C(=O)Nc1ccc(F)c(C#N)c1)C(=O)N(C)CC(CO)C3` (single isomer, unassigned) [Compound 087_D2, (3R,8R*)—N-(3-cyano-4-fluorophenyl)-8-(hydroxymethyl)-3,10-dimethyl-11-oxo-1,3,4,7,8,9,10,11-octahydro-2H-pyrido[4′,3′:3,4]pyrazolo[1,5-a][1,4]diazepine-2-carboxamide]: the EC50 is 0.001 to 0.1 µM.
Take `C[C@@H]1Cc2nn3c(c2CN1C(=O)Nc1ccc(F)c(C#N)c1F)C(=O)N(C)CC(CO)C3` (single isomer, unassigned) [Compound 088_D2, (3R,8R*)—N-(3-cyano-2,4-difluorophenyl)-8-(hydroxymethyl)-3,10-dimethyl-11-oxo-1,3,4,7,8,9,10,11-octahydro-2H-pyrido[4′,3′:3,4]pyrazolo[1,5-a][1,4]diazepine-2-carboxamide]: the EC50 fell in the range of 0.001 to 0.1 µM.
The same measure, in the same setting: the result for `C[C@@H]1Cc2nn3c(c2CN1C(=O)Nc1ccc(F)c(Cl)c1F)C(=O)N(C)CC(CO)C3` (single isomer, unassigned) [Compound 089_D2, (3R,8R*)—N-(3-chloro-2,4-difluorophenyl)-8-(hydroxymethyl)-3,10-dimethyl-11-oxo-1,3,4,7,8,9,10,11-octahydro-2H-pyrido[4′,3′:3,4]pyrazolo[1,5-a][1,4]diazepine-2-carboxamide] reads 0.001 to 0.1 µM.
On the same count and under the same terms, the same measure for `C[C@@H]1Cc2nn3c(c2CN1C(=O)Nc1cc(Cl)c(F)cc1F)C(=O)N(C)CC(CO)C3` (single isomer, unassigned) [Compound 090_D2, (3R,8R*)—N-(5-chloro-2,4-difluorophenyl)-8-(hydroxymethyl)-3,10-dimethyl-11-oxo-1,3,4,7,8,9,10,11-octahydro-2H-pyrido[4′,3′:3,4]pyrazolo[1,5-a][1,4]diazepine-2-carboxamide]: 0.001 to 0.1 µM.
The same measure, in the same setting: the result for `C[C@@H]1Cc2nn3c(c2CN1C(=O)Nc1ccc(F)c(Cl)c1)C(=O)N(CC(F)F)CC(CO)C3` (single isomer, unassigned) [Compound 092_D2, (3R,8 S*)—N-(3-chloro-4-fluorophenyl)-10-(2,2-difluoroethyl)-8-(hydroxymethyl)-3-methyl-11-oxo-1,3,4,7,8,9,10,11-octahydro-2H-pyrido[4′,3′:3,4]pyrazolo[1,5-a][1,4]diazepine-2-carboxamide] reads 0.001 to 0.1 µM; that for `CCC(O)C1CN(C)C(=O)c2c3c(nn2C1)CCN(C(=O)Nc1cc(Cl)c(F)cc1F)C3` (single isomer, unassigned) [Compound 096_E3, (S*)—N-(5-chloro-2,4-difluorophenyl)-8-((S*)-1-hydroxypropyl)-10-methyl-11-oxo-1,3,4,7,8,9,10,11-octahydro-2H-pyrido[4′,3′:3,4]pyrazolo[1,5-a][1,4]diazepine-2-carboxamide], 0.1 to 0.5 µM; that for `CCC(O)C1CN(C)C(=O)c2c3c(nn2C1)CCN(C(=O)Nc1ccc(F)c(C#N)c1)C3` (single isomer, unassigned) [Compound 097_E1, (R*)—N-(3-cyano-4-fluorophenyl)-8-((S*)-1-hydroxypropyl)-10-methyl-11-oxo-1,3,4,7,8,9,10,11-octahydro-2H-pyrido[4′,3′:3,4]pyrazolo[1,5-a][1,4]diazepine-2-carboxamide], 0.001 to 0.1 µM.
On to `CCC(O)C1CN(C)C(=O)c2c3c(nn2C1)CCN(C(=O)Nc1ccc(F)c(C#N)c1)C3` (single isomer, unassigned) [Compound 097_E2, (S*)—N-(3-cyano-4-fluorophenyl)-8-((R*)-1-hydroxypropyl)-10-methyl-11-oxo-1,3,4,7,8,9,10,11-octahydro-2H-pyrido[4′,3′: 3,4]pyrazolo[1,5-a][1,4]diazepine-2-carboxamide], for which the EC50 lay in the range of 0.1 to 0.5 µM.
As for `CCC(O)C1CN(C)C(=O)c2c3c(nn2C1)CCN(C(=O)Nc1ccc(F)c(C#N)c1)C3` (single isomer, unassigned) [Compound 097_E3, (S*)—N-(3-cyano-4-fluorophenyl)-8-((S*)-1-hydroxypropyl)-10-methyl-11-oxo-1,3,4,7,8,9,10,11-octahydro-2H-pyrido[4′,3′: 3,4]pyrazolo[1,5-a][1,4]diazepine-2-carboxamide], the EC50 lay in the range of 0.1 to 0.5 µM.
Turning to `CCC(O)C1CN(C)C(=O)c2c3c(nn2C1)CCN(C(=O)Nc1ccc(F)c(C#N)c1)C3` (single isomer, unassigned) [Compound 097_E4, (R*)—N-(3-cyano-4-fluorophenyl)-8-((R*)-1-hydroxypropyl)-10-methyl-11-oxo-1,3,4,7,8,9,10,11-octahydro-2H-pyrido[4′,3′: 3,4]pyrazolo[1,5-a][1,4]diazepine-2-carboxamide], the EC50 was 0.001 to 0.1 µM.

Staying with this experiment, now noted: Hepatitis B virus, HepG2.2.15, Activity in BDNA-assay.
`C[C@@H]1Cc2nn3c(c2CN1C(=O)Nc1ccc(F)c(C#N)c1)C(=O)N(C)CC(CO)C3` (single isomer, unassigned) [Compound 087_D1, (3R,8S*)—N-(3-cyano-4-fluorophenyl)-8-(hydroxymethyl)-3,10-dimethyl-11-oxo-1,3,4,7,8,9,10,11-octahydro-2H-pyrido[4′,3′:3,4]pyrazolo[1,5-a][1,4]diazepine-2-carboxamide]: the EC50 fell in the range of 0.001 to 0.1 µM.
Consider `C[C@@H]1Cc2nn3c(c2CN1C(=O)Nc1ccc(F)c(C#N)c1F)C(=O)N(C)CC(CO)C3` (single isomer, unassigned) [Compound 088_D1, (3R,8S*)—N-(3-cyano-2,4-difluorophenyl)-8-(hydroxymethyl)-3,10-dimethyl-11-oxo-1,3,4,7,8,9,10,11-octahydro-2H-pyrido[4′,3′:3,4]pyrazolo[1,5-a][1,4]diazepine-2-carboxamide], for which the EC50 was in the range of 0.001 to 0.1 µM.
Still for that read-out and setting: the result for `C[C@@H]1Cc2nn3c(c2CN1C(=O)Nc1ccc(F)c(Cl)c1F)C(=O)N(C)CC(CO)C3` (single isomer, unassigned) [Compound 089_D1, (3R,8S*)—N-(3-chloro-2,4-difluorophenyl)-8-(hydroxymethyl)-3,10-dimethyl-11-oxo-1,3,4,7,8,9,10,11-octahydro-2H-pyrido[4′,3′:3,4]pyrazolo[1,5-a][1,4]diazepine-2-carboxamide] reads 0.001 to 0.1 µM; that for `C[C@@H]1Cc2nn3c(c2CN1C(=O)Nc1cc(Cl)c(F)cc1F)C(=O)N(C)CC(CO)C3` (single isomer, unassigned) [Compound 090_D1, (3R,8S*)—N-(5-chloro-2,4-difluorophenyl)-8-(hydroxymethyl)-3,10-dimethyl-11-oxo-1,3,4,7,8,9,10,11-octahydro-2H-pyrido[4′,3′:3,4]pyrazolo[1,5-a][1,4]diazepine-2-carboxamide], 0.001 to 0.1 µM; that for `C[C@@H]1Cc2nn3c(c2CN1C(=O)Nc1ccc(F)c(Cl)c1)C(=O)N(CC(F)F)CC(CO)C3` (single isomer, unassigned) [Compound 092_D1, (3R,8R*)—N-(3-chloro-4-fluorophenyl)-10-(2,2-difluoroethyl)-8-(hydroxymethyl)-3-methyl-11-oxo-1,3,4,7,8,9,10,11-octahydro-2H-pyrido[4′,3′:3,4]pyrazolo[1,5-a][1,4]diazepine-2-carboxamide], 0.001 to 0.1 µM.
With `CC[C@H](O)[C@@H]1CN(C)C(=O)c2c3c(nn2C1)CCN(C(=O)Nc1cc(Cl)c(F)cc1F)C3` (single isomer, unassigned) [Compound 096_E1, (R*)—N-(5-chloro-2,4-difluorophenyl)-8-((S*)-1-hydroxypropyl)-10-methyl-11-oxo-1,3,4,7,8,9,10,11-octahydro-2H-pyrido[4′,3′:3,4]pyrazolo[1,5-a][1,4]diazepine-2-carboxamide], the EC50 fell in the range of 0.001 to 0.1 µM.
As for `CCC(O)C1CN(C)C(=O)c2c3c(nn2C1)CCN(C(=O)Nc1cc(Cl)c(F)cc1F)C3` (single isomer, unassigned) [Compound 096_E2, (S*)—N-(5-chloro-2,4-difluorophenyl)-8-((R*)-1-hydroxypropyl)-10-methyl-11-oxo-1,3,4,7,8,9,10,11-octahydro-2H-pyrido[4′,3′:3,4]pyrazolo[1,5-a][1,4]diazepine-2-carboxamide], the EC50 is 0.1 to 0.5 µM.

Broadly, the EC50 is the concentration giving half of the maximal effect.

Values taken from US10975077B2 (Novira Therapeutics, Inc., priority 2016, dated 2021).
